Test results published in ChEMBL document CHEMBL1152187, “Synthesis of C4-fluorinated solamins and their growth inhibitory activity against human cancer cell lines” (2008).

How the values were obtained:
Type in all cases: functional
[1] = Growth inhibition of human HBC5 cells by sulforhodamine B assay
[2] = test system: HT-29; assay: Growth inhibition of human HT-29 cells by sulforhodamine B assay
[3] = test system: SNB-78; assay: Growth inhibition of human SNB-78 cells by sulforhodamine B assay
[4] = test system: MKN-74; assay: Growth inhibition of human MKN74 cells by sulforhodamine B assay
[5] = test system: MDA-MB-231; assay: Growth inhibition of human MDA-MB-231 cells by sulforhodamine B assay
[6] = Growth inhibition of human RXF631L cells by sulforhodamine B assay; settings: RXF 631
[7] = test system: MKN-7; assay: Growth inhibition of human MKN7 cells by sulforhodamine B assay
[8] = test system: MKN-28; assay: Growth inhibition of human MKN28 cells by sulforhodamine B assay
[9] = test system: U-251; assay: Growth inhibition of human U251 cells by sulforhodamine B assay
[10] = test system: SF-539; assay: Growth inhibition of human SF539 cells by sulforhodamine B assay
[11] = Growth inhibition of human MKN1 cells by sulforhodamine B assay; settings: MKN-1
[12] = test system: DMS-273; assay: Growth inhibition of human DMS273 cells by sulforhodamine B assay
[13] = test system: LOX IMVI; assay: Growth inhibition of human LOXIMVI cells by sulforhodamine B assay
[14] = test system: SF-295; assay: Growth inhibition of human SF295 cells by sulforhodamine B assay
[15] = Growth inhibition of human BSY1 cells by sulforhodamine B assay; settings: BSY-1
[16] = test system: NCI-H460; assay: Growth inhibition of human NCI-H460 cells by sulforhodamine B assay
[17] = test system: OVCAR-5; assay: Growth inhibition of human OVCAR5 cells by sulforhodamine B assay
[18] = test system: A549; assay: Growth inhibition of human A549 cells by sulforhodamine B assay
[19] = test system: HCT-15; assay: Growth inhibition of human HCT15 cells by sulforhodamine B assay
[20] = test system: KM12; assay: Growth inhibition of human KM12 cells by sulforhodamine B assay
[21] = test system: OVCAR-8; assay: Growth inhibition of human OVCAR8 cells by sulforhodamine B assay
[22] = test system: PC-3; assay: Growth inhibition of human PC3 cells by sulforhodamine B assay
[23] = test system: SNB-75; assay: Growth inhibition of human SNB75 cells by sulforhodamine B assay
[24] = test system: SK-OV-3; assay: Growth inhibition of human SKOV3 cells by sulforhodamine B assay
[25] = test system: NCI-H226; assay: Growth inhibition of human NCI-H226 cells by sulforhodamine B assay
[26] = test system: DU-145; assay: Growth inhibition of human DU145 cells by sulforhodamine B assay
[27] = test system: DMS-114; assay: Growth inhibition of human DMS114 cells by sulforhodamine B assay
[28] = test system: ACHN; assay: Growth inhibition of human ACHN cells by sulforhodamine B assay
[29] = test system: MCF7; assay: Growth inhibition of human MCF7 cells by sulforhodamine B assay
[30] = test system: NCI-H23; assay: Growth inhibition of human NCI-H23 cells by sulforhodamine B assay
[31] = test system: SF-268; assay: Growth inhibition of human SF268 cells by sulforhodamine B assay
[32] = Growth inhibition of human HBC4 cells by sulforhodamine B assay
[33] = test system: HCC 2998; assay: Growth inhibition of human HCC2998 cells by sulforhodamine B assay
[34] = test system: OVCAR-3; assay: Growth inhibition of human OVCAR-3 cells by sulforhodamine B assay
[35] = test system: St-4; assay: Growth inhibition of human St-4 cells by sulforhodamine B assay
[36] = test system: NCI-H522; assay: Growth inhibition of human NCI-H522 cells by sulforhodamine B assay
[37] = test system: MKN-45; assay: Growth inhibition of human MKN45 cells by sulforhodamine B assay
[38] = test system: HCT-116; assay: Growth inhibition of human HCT116 cells by sulforhodamine B assay
[39] = test system: OVCAR-4; assay: Growth inhibition of human OVCAR4 cells by sulforhodamine B assay

GI50 [2] [µM] | GI50 [4] [µM] | GI50 [5] [µM] | GI50 [7] [µM] | GI50 [8] [µM] | GI50 [9] [µM] | GI50 [16] [µM] | GI50 [17] [µM] | GI50 [18] [µM] | GI50 [19] [µM] | SMILES | GI50 [1] [µM] | GI50 [3] [µM] | GI50 [6] [µM] | GI50 [10] [µM] | GI50 [11] [µM] | GI50 [12] [µM] | GI50 [13] [µM] | GI50 [14] [µM] | GI50 [15] [µM] | GI50 [20] [µM] | further results
92 | > 100 | > 100 | 19 | > 100 | > 100 | > 100 | > 100 | > 100 | > 100 | CCCCCCCCCCCC[C@@H](O)[C@H]1CC[C@H]([C@H](O)CCCCCCCCCC[C@H](F)CC2=C[C@H](C)OC2=O)O1 | > 100 | > 100 | > 100 | > 100 | > 100 | > 100 | 97 | 31 | 69 | > 100 | GI50 [21]: > 100 µM; GI50 [22]: 84 µM; GI50 [23]: 58 µM; GI50 [24]: > 100 µM; GI50 [25]: 40 µM; GI50 [26]: > 100 µM; GI50 [27]: 0.46 µM; GI50 [28]: > 100 µM; GI50 [29]: 37 µM; GI50 [30]: 5.1 µM; GI50 [31]: > 100 µM; GI50 [32]: > 100 µM; GI50 [33]: > 100 µM; GI50 [34]: > 100 µM; GI50 [35]: > 100 µM; GI50 [36]: 16 µM; GI50 [37]: 43 µM; GI50 [38]: 27 µM; GI50 [39]: > 100 µM
> 100 | > 100 | > 100 | 0.96 | 41 | > 100 | > 100 | > 100 | > 100 | > 100 | CCCCCCCCCCCC[C@@H](O)[C@H]1CC[C@H]([C@H](O)CCCCCCCCCC[C@@H](F)CC2=C[C@H](C)OC2=O)O1 | > 100 | > 100 | > 100 | > 100 | > 100 | > 100 | 6.5 | 37 | > 100 | > 100 | GI50 [21]: 62 µM; GI50 [22]: > 100 µM; GI50 [23]: 84 µM; GI50 [24]: > 100 µM; GI50 [25]: 58 µM; GI50 [26]: > 100 µM; GI50 [27]: 0.26 µM; GI50 [28]: > 100 µM; GI50 [29]: 56 µM; GI50 [30]: 23 µM; GI50 [31]: > 100 µM; GI50 [32]: > 100 µM; GI50 [33]: > 100 µM; GI50 [34]: > 100 µM; GI50 [35]: 74 µM; GI50 [36]: 25 µM; GI50 [37]: > 100 µM; GI50 [38]: 2 µM; GI50 [39]: > 100 µM
> 100 | 4.6 | > 100 | 0.7 | 2.8 | 7.3 | > 100 | > 100 | 96 | 51 | CCCCCCCCCCCC[C@@H](O)[C@H]1CC[C@H]([C@H](O)CCCCCCCCCC[C@@H](O)CC2=C[C@H](C)OC2=O)O1 [MURISOLIN] | 9.7 | 78 | 40 | 88 | 20 | 72 | 1.9 | 7.3 | 8.3 | > 100 | GI50 [21]: 38 µM; GI50 [22]: 17 µM; GI50 [23]: 39 µM; GI50 [24]: > 100 µM; GI50 [25]: 29 µM; GI50 [26]: > 100 µM; GI50 [27]: < 0.01 µM; GI50 [28]: > 100 µM; GI50 [29]: 3.9 µM; GI50 [30]: 0.22 µM; GI50 [31]: > 100 µM; GI50 [32]: > 100 µM; GI50 [33]: > 100 µM; GI50 [34]: 6.9 µM; GI50 [35]: 41 µM; GI50 [36]: 3.6 µM; GI50 [37]: > 100 µM; GI50 [38]: 3.7 µM; GI50 [39]: 6.9 µM

SMILES | GI50 [2] [µM] | GI50 [4] [µM] | GI50 [5] [µM] | GI50 [7] [µM] | GI50 [8] [µM] | GI50 [9] [µM] | GI50 [16] [µM] | GI50 [17] [µM] | GI50 [18] [µM] | GI50 [19] [µM] | GI50 [1] [µM] | GI50 [3] [µM] | GI50 [6] [µM] | GI50 [10] [µM] | GI50 [11] [µM] | GI50 [12] [µM] | GI50 [13] [µM] | GI50 [14] [µM] | GI50 [15] [µM] | GI50 [20] [µM] | further results
CCCCCCCCCCCC[C@@H](O)[C@H]1CC[C@H]([C@H](O)CCCCCCCCCCCCC2=C[C@H](C)OC2=O)O1 [REL-SOLAMIN] | > 100 | > 100 | > 100 | 13 | 14 | > 100 | > 100 | > 100 | > 100 | > 100 | > 100 | > 100 | > 100 | > 100 | > 100 | > 100 | 29 | 40 | > 100 | > 100 | GI50 [21]: > 100 µM; GI50 [22]: > 100 µM; GI50 [23]: > 100 µM; GI50 [24]: > 100 µM; GI50 [25]: > 100 µM; GI50 [26]: > 100 µM; GI50 [27]: 4.3 µM; GI50 [28]: > 100 µM; GI50 [29]: 71 µM; GI50 [30]: 73 µM; GI50 [31]: > 100 µM; GI50 [32]: > 100 µM; GI50 [33]: > 100 µM; GI50 [34]: > 100 µM; GI50 [35]: > 100 µM; GI50 [36]: 58 µM; GI50 [37]: > 100 µM; GI50 [38]: > 100 µM; GI50 [39]: > 100 µM
